Measured values from the NIST ThermoML archive (doi:10.1021/acs.jced.8b00595).
± gives the expanded uncertainty stated by the source.

Conditions: 101.3 kPa, Liquid; for viscosity: Concentric cylinders viscometry; for mass density: Vibrating tube method

COC(C)(C)C [2-methoxy-2-methylpropane]
Conditions | mass density [kg/m3] | viscosity [mPa·s]
273.15 K | 761.3 ± 2.3 | 0.495 ± 0.025
288.15 K | 745.9 ± 2.3 | 0.421 ± 0.022
298.15 K | 735 ± 2.2 | 0.381 ± 0.02
308.15 K | 724.6 ± 2.2 | 0.328 ± 0.017
